Reference: PubChem BioAssay (NCI)
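Dose response: 5 concentrations. Exposure: 48 h. Format: 96-well plates. Endpoint: linear interpolation; highest concentration if not reached. At the GI50, growth is halved. Definition used: TGI = concentration required for complete inhibition of growth.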

Tests used:
Experiment in all cases: inhibition of tumour cell growth, NCI panel, 48 h
HOP-92 NSCLC = test system: HOP-92 NSCLC
SK-MEL-28 melanoma = test system: SK-MEL-28 melanoma
ACHN renal = test system: ACHN renal
786-0 renal = test system: 786-0 renal
NCI-H226 lung = test system: NCI-H226 lung
MOLT-4 leukemia = test system: MOLT-4 leukemia
BT-549 breast = test system: BT-549 breast
TK-10 renal = test system: TK-10 renal
RXF 393 renal = test system: RXF 393 renal
MDA-MB-435 = test system: MDA-MB-435
NCI-H522 lung = test system: NCI-H522 lung
MDA-MB-231 breast = test system: MDA-MB-231 breast
MALME-3M melanoma = test system: MALME-3M melanoma
SK-OV-3 ovarian = test system: SK-OV-3 ovarian
NCI-H23 lung = test system: NCI-H23 lung
K-562 leukemia = test system: K-562 leukemia
NCI/ADR-RES ovarian = test system: NCI/ADR-RES ovarian
SNB-19 CNS = test system: SNB-19 CNS
NCI-H460 lung = test system: NCI-H460 lung
SF-268 CNS = test system: SF-268 CNS
CCRF-CEM leukemia = test system: CCRF-CEM leukemia
UACC-62 melanoma = test system: UACC-62 melanoma
HL-60(TB) leukemia = test system: HL-60(TB) leukemia
SK-MEL-5 melanoma = test system: SK-MEL-5 melanoma
LOX IMVI melanoma = test system: LOX IMVI melanoma
IGROV1 ovarian = test system: IGROV1 ovarian
SR leukemia = test system: SR leukemia
OVCAR-3 ovarian = test system: OVCAR-3 ovarian
T-47D breast = test system: T-47D breast

Cn1cc(-c2cc3nc(-c4c[nH]c5ccccc45)cc(N)n3n2)c2cc(Cl)ccc21
GI50 (HOP-92 NSCLC): 1.99 µM | TGI (HOP-92 NSCLC): 4.1 µM | GI50 (SK-MEL-28 melanoma): 1.7 µM | TGI (SK-MEL-28 melanoma): 3.12 µM | GI50 (ACHN renal): 1.75 µM | TGI (ACHN renal): 3.41 µM | GI50 (786-0 renal): 1.64 µM | TGI (786-0 renal): 3.12 µM | GI50 (NCI-H226 lung): 16.9 µM | TGI (NCI-H226 lung): 44 µM | GI50 (MOLT-4 leukemia): 2.71 µM | TGI (MOLT-4 leukemia): 11.1 µM | GI50 (BT-549 breast): 12.9 µM | TGI (BT-549 breast): 32.2 µM | GI50 (TK-10 renal): 2.03 µM | TGI (TK-10 renal): 5.36 µM | GI50 (RXF 393 renal): 1.87 µM | TGI (RXF 393 renal): 3.81 µM | GI50 (MDA-MB-435): 1.79 µM | TGI (MDA-MB-435): 3.32 µM | GI50 (NCI-H522 lung): 1.75 µM | TGI (NCI-H522 lung): 3.75 µM | GI50 (MDA-MB-231 breast): 2.31 µM | TGI (MDA-MB-231 breast): 5.24 µM | GI50 (MALME-3M melanoma): 1.7 µM | TGI (MALME-3M melanoma): 3.26 µM | GI50 (SK-OV-3 ovarian): 2.24 µM | TGI (SK-OV-3 ovarian): 5.62 µM | GI50 (NCI-H23 lung): 2.26 µM | TGI (NCI-H23 lung): 5.58 µM | GI50 (K-562 leukemia): 2.26 µM | TGI (K-562 leukemia): 6.3 µM | GI50 (NCI/ADR-RES ovarian): 2.46 µM | TGI (NCI/ADR-RES ovarian): 6.8 µM | GI50 (SNB-19 CNS): 3.29 µM | TGI (SNB-19 CNS): 13.8 µM | GI50 (NCI-H460 lung): 2.36 µM | TGI (NCI-H460 lung): 5.56 µM | GI50 (SF-268 CNS): 2.16 µM | TGI (SF-268 CNS): 5.44 µM | GI50 (CCRF-CEM leukemia): 4.4 µM | TGI (CCRF-CEM leukemia): > 100 µM | GI50 (UACC-62 melanoma): 1.8 µM | TGI (UACC-62 melanoma): 3.51 µM | GI50 (HL-60(TB) leukemia): 1.94 µM | TGI (HL-60(TB) leukemia): 5.01 µM | GI50 (SK-MEL-5 melanoma): 1.98 µM | TGI (SK-MEL-5 melanoma): 4.09 µM | GI50 (LOX IMVI melanoma): 1.71 µM | TGI (LOX IMVI melanoma): 3.15 µM | GI50 (IGROV1 ovarian): 2.53 µM | TGI (IGROV1 ovarian): 7.62 µM | GI50 (SR leukemia): 2.61 µM | TGI (SR leukemia): 9.11 µM | GI50 (OVCAR-3 ovarian): 2.23 µM | TGI (OVCAR-3 ovarian): 4.76 µM | GI50 (T-47D breast): 1.76 µM
